Experimental data from PubChem BioAssay (NCI).
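Interpolation was linear, between the two tested concentrations surrounding the appropriate level; five concentrations were tested over 48 hours in 96-well plates. GI50 = concentration required for 50% inhibition of growth. Definition used: TGI = concentration required for complete inhibition of growth.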

Columns and labels:
Experiment in all cases: inhibition of tumour cell growth, NCI panel, 48 h
786-0 renal = tested on: 786-0 renal
A498 renal = tested on: A498 renal
A549 NSCLC = tested on: A549 NSCLC
ACHN renal = tested on: ACHN renal
BT-549 breast = tested on: BT-549 breast
CAKI-1 renal = tested on: CAKI-1 renal
CCRF-CEM leukemia = tested on: CCRF-CEM leukemia
DU-145 prostate = tested on: DU-145 prostate
EKVX NSCLC = tested on: EKVX NSCLC
HCC-2998 colon = tested on: HCC-2998 colon
HCT-116 colon = tested on: HCT-116 colon
HCT-15 colon = tested on: HCT-15 colon
HL-60(TB) leukemia = tested on: HL-60(TB) leukemia
HOP-62 NSCLC = tested on: HOP-62 NSCLC
HOP-92 NSCLC = tested on: HOP-92 NSCLC
HS 578T breast = tested on: HS 578T breast
HT29 colon = tested on: HT29 colon
IGROV1 ovarian = tested on: IGROV1 ovarian
K-562 leukemia = tested on: K-562 leukemia
KM12 colon = tested on: KM12 colon
LOX IMVI melanoma = tested on: LOX IMVI melanoma
M14 melanoma = tested on: M14 melanoma
MALME-3M melanoma = tested on: MALME-3M melanoma
MCF7 breast = tested on: MCF7 breast
MDA-MB-231 breast = tested on: MDA-MB-231 breast
MDA-MB-435 = tested on: MDA-MB-435
MOLT-4 leukemia = tested on: MOLT-4 leukemia
NCI-H226 lung = tested on: NCI-H226 lung
NCI-H23 lung = tested on: NCI-H23 lung
NCI-H460 lung = tested on: NCI-H460 lung
NCI-H522 lung = tested on: NCI-H522 lung
NCI/ADR-RES ovarian = tested on: NCI/ADR-RES ovarian
OVCAR-4 ovarian = tested on: OVCAR-4 ovarian
OVCAR-5 ovarian = tested on: OVCAR-5 ovarian
OVCAR-8 ovarian = tested on: OVCAR-8 ovarian
PC-3 prostate = tested on: PC-3 prostate
RPMI-8226 leukemia = tested on: RPMI-8226 leukemia
RXF 393 renal = tested on: RXF 393 renal
SF-268 CNS = tested on: SF-268 CNS
SF-295 CNS = tested on: SF-295 CNS
SF-539 CNS = tested on: SF-539 CNS
SK-MEL-2 melanoma = tested on: SK-MEL-2 melanoma
SK-MEL-28 melanoma = tested on: SK-MEL-28 melanoma
SK-MEL-5 melanoma = tested on: SK-MEL-5 melanoma
SK-OV-3 ovarian = tested on: SK-OV-3 ovarian
SN12C renal = tested on: SN12C renal
SNB-19 CNS = tested on: SNB-19 CNS
SNB-75 CNS = tested on: SNB-75 CNS
SR leukemia = tested on: SR leukemia
SW-620 colon = tested on: SW-620 colon
TK-10 renal = tested on: TK-10 renal
U251 CNS = tested on: U251 CNS
UACC-257 melanoma = tested on: UACC-257 melanoma
UACC-62 melanoma = tested on: UACC-62 melanoma
UO-31 renal = tested on: UO-31 renal

COc1ccccc1NC1=C(Cl)C(=O)c2nc(C)ccc2C1=O
GI50 (786-0 renal): 1910 nM | TGI (786-0 renal): 3610 nM | GI50 (A498 renal): 1900 nM | TGI (A498 renal): 4600 nM | GI50 (A549 NSCLC): 2440 nM | TGI (A549 NSCLC): 6240 nM | GI50 (ACHN renal): 1470 nM | TGI (ACHN renal): 2800 nM | GI50 (BT-549 breast): 1720 nM | TGI (BT-549 breast): 3270 nM | GI50 (CAKI-1 renal): 1500 nM | TGI (CAKI-1 renal): 2870 nM | GI50 (CCRF-CEM leukemia): 1940 nM | TGI (CCRF-CEM leukemia): 8210 nM | GI50 (DU-145 prostate): 1720 nM | TGI (DU-145 prostate): 3110 nM | GI50 (EKVX NSCLC): 1610 nM | TGI (EKVX NSCLC): 3050 nM | GI50 (HCC-2998 colon): 1870 nM | TGI (HCC-2998 colon): 3460 nM | GI50 (HCT-116 colon): 1530 nM | TGI (HCT-116 colon): 4160 nM | GI50 (HCT-15 colon): 1330 nM | TGI (HCT-15 colon): 3020 nM | GI50 (HL-60(TB) leukemia): 1370 nM | TGI (HL-60(TB) leukemia): 3520 nM | GI50 (HOP-62 NSCLC): 2410 nM | TGI (HOP-62 NSCLC): 6980 nM | GI50 (HOP-92 NSCLC): 1850 nM | TGI (HOP-92 NSCLC): 3300 nM | GI50 (HS 578T breast): 2270 nM | TGI (HS 578T breast): 5640 nM | GI50 (HT29 colon): 2130 nM | TGI (HT29 colon): 4490 nM | GI50 (IGROV1 ovarian): 1460 nM | TGI (IGROV1 ovarian): 2920 nM | GI50 (K-562 leukemia): 290 nM | TGI (K-562 leukemia): 2940 nM | GI50 (KM12 colon): 1490 nM | TGI (KM12 colon): 3080 nM | GI50 (LOX IMVI melanoma): 952 nM | TGI (LOX IMVI melanoma): 2360 nM | GI50 (M14 melanoma): 1820 nM | TGI (M14 melanoma): 3810 nM | GI50 (MALME-3M melanoma): 1710 nM | TGI (MALME-3M melanoma): 3190 nM | GI50 (MCF7 breast): 1780 nM | TGI (MCF7 breast): 4490 nM | GI50 (MDA-MB-231 breast): 1190 nM | TGI (MDA-MB-231 breast): 2530 nM | GI50 (MDA-MB-435): 1700 nM | TGI (MDA-MB-435): 3110 nM | GI50 (MOLT-4 leukemia): 2270 nM | TGI (MOLT-4 leukemia): 8600 nM | GI50 (NCI-H226 lung): 1930 nM | TGI (NCI-H226 lung): 4520 nM | GI50 (NCI-H23 lung): 1470 nM | TGI (NCI-H23 lung): 3310 nM | GI50 (NCI-H460 lung): 3220 nM | TGI (NCI-H460 lung): 12000 nM | GI50 (NCI-H522 lung): 1810 nM | TGI (NCI-H522 lung): 3360 nM | GI50 (NCI/ADR-RES ovarian): 2030 nM | TGI (NCI/ADR-RES ovarian): 5160 nM | GI50 (OVCAR-4 ovarian): 1210 nM | TGI (OVCAR-4 ovarian): 2490 nM | GI50 (OVCAR-5 ovarian): 1860 nM | TGI (OVCAR-5 ovarian): 3420 nM | GI50 (OVCAR-8 ovarian): 1610 nM | TGI (OVCAR-8 ovarian): 3250 nM | GI50 (PC-3 prostate): 1210 nM | TGI (PC-3 prostate): 2580 nM | GI50 (RPMI-8226 leukemia): 1570 nM | TGI (RPMI-8226 leukemia): 4610 nM | GI50 (RXF 393 renal): 1420 nM | TGI (RXF 393 renal): 2760 nM | GI50 (SF-268 CNS): 1530 nM | TGI (SF-268 CNS): 3050 nM | GI50 (SF-295 CNS): 1850 nM | TGI (SF-295 CNS): 3420 nM | GI50 (SF-539 CNS): 1680 nM | TGI (SF-539 CNS): 3130 nM | GI50 (SK-MEL-2 melanoma): 1810 nM | TGI (SK-MEL-2 melanoma): 3350 nM | GI50 (SK-MEL-28 melanoma): 1850 nM | TGI (SK-MEL-28 melanoma): 3340 nM | GI50 (SK-MEL-5 melanoma): 1750 nM | TGI (SK-MEL-5 melanoma): 3170 nM | GI50 (SK-OV-3 ovarian): 12600 nM | TGI (SK-OV-3 ovarian): 27500 nM | GI50 (SN12C renal): 1700 nM | TGI (SN12C renal): 3290 nM | GI50 (SNB-19 CNS): 1810 nM | TGI (SNB-19 CNS): 3720 nM | GI50 (SNB-75 CNS): 1500 nM | TGI (SNB-75 CNS): 2840 nM | GI50 (SR leukemia): 794 nM | TGI (SR leukemia): 4250 nM | GI50 (SW-620 colon): 1840 nM | TGI (SW-620 colon): 3730 nM | GI50 (TK-10 renal): 2340 nM | TGI (TK-10 renal): 3860 nM | GI50 (U251 CNS): 1850 nM | TGI (U251 CNS): 3730 nM | GI50 (UACC-257 melanoma): 1570 nM | TGI (UACC-257 melanoma): 3090 nM | GI50 (UACC-62 melanoma): 1820 nM | TGI (UACC-62 melanoma): 3370 nM | GI50 (UO-31 renal): 1420 nM | TGI (UO-31 renal): 2730 nM
